Square brackets hold non-standard residues; d marks the D form. Ends that are not written are not given here. Peptide text beside a SMILES is read from it. NMeY = CN[C@@H](Cc1ccc(O)cc1)C(=O)O; NMeF = CN[C@@H](Cc1ccccc1)C(=O)O; Nle = CCCC[C@H](N)C(=O)O
Key:
[1] = system: cells of rat pituitary glands; experiment: in vitro GH release assay in cultured rat pituitary cells, side-by-side with hpGRF(1-40)-OH standard; assay type: cell-based; details: for Comparison % (GH release relative to hpGRF(1-40)-OH standard): equimolar concentrations, incubation 3 to 4 hours, immunoreactive GH in culture medium by radioimmunoassay, hpGRF(1-40)-OH = 100%
Description: To determine the effectiveness of the various synthetic peptides to promote the release of growth hormone, in vitro assays are carried out using synthetic hpGRF(1-40)--OH as a standard in side-by-side comparison with equimolar concentrations of the various other analogs and fragments synthesized. Cultures are used which include cells of rat pituitary glands removed some three to five days previously. Cultures which are considered optimal for the secretion of growth hormone are used for the comparative testing, in the general manner described in Vale et al. Endocrinology , 91, 562-572 (1972) and as more particularly described in Vale et al. Endocrinology, (1983), in press. Incubation with the substance to be tested is carried out for 3 to 4 hours, and aliquots of the culture medium are removed and processed to measure their contents in immunoreactive GH(ir GH) by a well-characterized radioimmunoassay.

[2] = system: secretion of pituitary GH; experiment: in vivo GH secretion in freely running normal male rats pretreated with FLA-63; design: species or system rat; details: injection through indwelling catheter, blood samples prior to and 5 and 20 minutes after injection
Description: In addition to the in vitro tests for secretion of growth hormone, in vivo experiments inject the synthetic peptides through an indwelling catheter into freely running normal male rats after pretreating them with FLA-63, a dopamine hydroxylase inhibitor that suppresses spontaneous GH secretion without affecting the response to exogenous GRF. Blood samples are taken through the same catheter immediately prior to and 5 and 20 minutes after injections. […] Dosages between about 100 nanograms and about 50 micrograms per Kg. of body weight are considered to be effective in causing secretion.

Compound	Comparison % (GH release relative to hpGRF(1-40)-OH standard) [1] [%]	maximum effective concentration ([1]; in vitro, rat pituitary cell cultures) [nM]	duration of GH-releasing action compared with hpGRF(1-32)-NH2 [2]	stimulation of secretion of pituitary GH (GH levels in blood) ([2]; radioimmunoassay)
CC[C@H](C)[C@H](NC(=O)[C@H](C)NC(=O)[C@H](CC(=O)O)NC(=O)[C@H](C)NC(=O)[C@H](Cc1ccccc1)NC)C(=O)N[C@@H](Cc1ccccc1)C(=O)N[C@H](C(=O)N[C@@H](CC(N)=O)C(=O)N[C@@H](CO)C(=O)N[C@@H](Cc1ccc(O)cc1)C(=O)N[C@@H](CCCNC(=N)N)C(=O)N[C@@H](CCCCN)C(=O)N[C@H](C(=O)N[C@@H](CC(C)C)C(=O)NCC(=O)N[C@@H](CCC(N)=O)C(=O)N[C@@H](CC(C)C)C(=O)N[C@@H](CO)C(=O)N[C@@H](C)C(=O)N[C@@H](CCCNC(=N)N)C(=O)N[C@@H](CCCCN)C(=O)N[C@@H](CC(C)C)C(=O)N[C@@H](CC(C)C)C(=O)N[C@@H](CCC(N)=O)C(=O)N[C@@H](CC(=O)O)C(=O)N[C@H](C(=O)N[C@@H](CCSC)C(=O)N[C@@H](CO)C(=O)N[C@@H](CCCNC(=N)N)C(=O)N[C@@H](CCC(N)=O)C(=O)N[C@@H](CCC(N)=O)C(=O)NCC(N)=O)[C@@H](C)CC)C(C)C)[C@@H](C)O [[N^a MePhe^1]-hpGRF(1-32)-NH2] (H-[NMeF]ADAIFTNSYRKVLGQLSARKLLQDIMSRQQG-NH2)	12	5 to 10	substantially longer duration that hpGRF(1-32)-NH2	powerful stimulators of the secretion of pituitary GH
CCCC[C@H](NC(=O)[C@@H](NC(=O)[C@H](CCC(=O)O)NC(=O)[C@H](Cc1c[nH]cn1)NC(=O)[C@H](CC(C)C)NC(=O)[C@H](CC(C)C)NC(=O)[C@H](CCCCN)NC(=O)[C@H](CCCNC(=N)N)NC(=O)[C@H](C)NC(=O)[C@H](Cc1ccc(O)cc1)NC(=O)[C@H](CC(C)C)NC(=O)[C@H](CCC(N)=O)NC(=O)CNC(=O)[C@H](CC(C)C)NC(=O)[C@@H](NC(=O)[C@H](CCCNC(=N)N)NC(=O)[C@H](CCCNC(=N)N)NC(=O)[C@H](Cc1ccc(O)cc1)NC(=O)[C@H](CO)NC(=O)[C@H](CO)NC(=O)[C@@H](NC(=O)[C@H](Cc1ccccc1)NC(=O)[C@@H](NC(=O)[C@H](C)NC(=O)[C@H](CC(=O)O)NC(=O)[C@H](C)NC(=O)[C@H](Cc1ccc(O)cc1)NC)[C@@H](C)CC)[C@@H](C)O)[C@@H](C)CC)[C@@H](C)CC)C(=O)N[C@@H](CC(N)=O)C(=O)N[C@@H](CCCNC(=N)N)C(N)=O [[N^a MeTyr^1, Nle^27]-rhGRF(1-29)-NH2, H-N^a MeTyr-Ala-Asp-Ala-Ile-Phe-Thr-Ser-Ser-Tyr-Arg-Arg-Ile-Leu-Gly-Gln-Leu-Tyr- Ala-Arg-Lys-Leu-Leu-His-Glu-Ile-Nle-Asn-Arg-NH2] (H-[NMeY]ADAIFTSSYRRILGQLYARKLLHEI[Nle]NR-NH2)	1130			
CC[C@H](C)[C@H](NC(=O)[C@H](C)NC(=O)[C@H](CC(=O)O)NC(=O)[C@H](C)NC(=O)[C@H](Cc1ccc(O)cc1)NC)C(=O)N[C@@H](Cc1ccccc1)C(=O)N[C@H](C(=O)N[C@@H](CC(N)=O)C(=O)N[C@@H](CO)C(=O)N[C@@H](Cc1ccc(O)cc1)C(=O)N[C@@H](CCCNC(=N)N)C(=O)N[C@@H](CCCCN)C(=O)N[C@H](C(=O)N[C@@H](CC(C)C)C(=O)NCC(=O)N[C@@H](CCC(N)=O)C(=O)N[C@@H](CC(C)C)C(=O)N[C@@H](CO)C(=O)N[C@@H](C)C(=O)N[C@@H](CCCNC(=N)N)C(=O)N[C@@H](CCCCN)C(=O)N[C@@H](CC(C)C)C(=O)N[C@@H](CC(C)C)C(=O)N[C@@H](CCC(N)=O)C(=O)N[C@@H](CC(=O)O)C(=O)N[C@H](C(=O)N[C@@H](CCSC)C(=O)N[C@@H](CO)C(=O)N[C@@H](CCCNC(=N)N)C(=O)N[C@@H](CCC(N)=O)C(=O)N[C@@H](CCC(N)=O)C(=O)NCC(N)=O)[C@@H](C)CC)C(C)C)[C@@H](C)O [[N^a MeTyr^1]hpGRF(1-32)-NH2, H-N^a MeTyr-Ala-Asp-Ala-Ile-Phe-Thr-Asn-Ser-Tyr-Arg-Lys-Val-Leu-Gly-Gln-Leu-Ser- Ala-Arg-Lys-Leu-Leu-Gln-Asp-Ile-Met-Ser-Arg-Gln-Gln-Gly-NH2]	184			
H-C^a MePhe(4Cl)-Ala-Asp-Ala-Ile-Phe-Thr-Asn-Ser-Tyr-Arg-Lys-Val-Leu-Gly-Gln-Leu-Ser-Ala-Arg-Lys-Leu-Leu-Gln-Asp-Ile-Met-Ser-Arg-Gln-Gln-Gly-NH2 [[C^a Me/4Cl-Phe^1]-hpGRF(1-32)-NH2]	5			
hpGRF(1-40)-OH (YADAIFTNSYRKVLGQLSARKLLQDIMSRQQGESNQERGA-OH; UniProt P01286 32-71, looked up, fragment) [synthetic human pancreas GH releasing factor fragment used as standard in the in vitro assay, reference compound]	100			

Source: patent US4626523A, “GRF analogs II” (The Salk Institute for Biological Studies, priority 1985, dated 1986)
